Reference: patent US20250304623A1, “PEPTIDES FOR INTRACELLULAR DELIVERY” (UNIVERSIDADE DE SANTIAGO DE COMPOSTELA, priority 2022, published 2025)
*: point of attachment. NHNH2 = NN*

Legend:
Format in all cases: cell-based
[1] = tested on: HCT116 cells; assay: RLuc pDNA delivery, robotic library screening, HCT116
[2] = tested on: ARPE19 cells expressing EGFP; assay: Cas9-RNP delivery against EGFP (gene editing, plate reader), ARPE19
Method: (§1) To generate an EGFP expressing HeLa cell line, HeLa cells were transfected with EGFP pDNA (pEGFP-C1, Clontech) and stable transfectants were selected with 400 μg/mL of G-418 (Millipore). Green clones were selected by epifluorescence microscopy and tested for EGFP expression stability through several passages. […] All other EGFP-expressing cell lines were obtained in a similar way from parent non-EGFP-expressing cell lines.
Cells expressing EGFP were seeded in a 96 well plate the day before the experiment at a concentration of 50,000 cell/mL (100 μL/w) in DMEM+10% FBS+1% Gln-Abt. For robotic library screening, the delivery of Cas9-RNP against EGFP (RNP designed to knock-out the gene encoding for the enhanced green fluorescent protein (EGFP)) was performed. For RNP assembly, 9.2 μL of crRNA and 9.2 μL of tracrRNA were mixed in 211.6 μL of Nuclease-Free Duplex Buffer (IDT), incubated for 5 min at 95° C. and slowly cooled at rt (see I. Lostalé-Seijo, et al. Peptide/Cas9 nanostructures for ribonucleoprotein cell membrane transport and gene edition, Chem. Sci., 2017). Cas9 protein was dissolved in DMEM at a final concentration of 4 μM and equal volumes of the RNA complex and Cas9 were mixed and incubated for 5 min at rt. 75 μL of the corresponding amphiphile concentrations were added to 5 μL of RNP at 2 μM. The mixture was shaken for 30 min at room temperature before the addition to the cells. The cell medium was aspirated, and cells were washed twice with PBS. Cells were covered with 30 μL of DMEM and 20 μL of the RNP/amphiphile complexes were added to the cells (final peptide concentrations=2.5, 5 and 10 μM; final Cas9-RNP concentration=50 nM) and incubated for 4 h. After the incubation, the medium was replaced by 100 μL of fresh DMEM supplemented with 10% FBS. The total EGFP fluorescence was quantified after 72 h in a plate reader (FIG. 2, Table 1 (right) and Table 6). All experiments were done in triplicate. […]
(§2) Tables 26-31 show the mean (triplicates) percentage of gene editing, accounted by GFP fluorescence intensity decrease (% of reduction), measured after the transfection of Cas9-RNP by different amphiphiles at different concentrations in a variety of cell lines. Background values, accounted by untreated control cells, were subtracted for processing.

[3] = tested on: A549 cells expressing EGFP; assay: EGFP-targeting siRNA delivery (GFP silencing vs siMOCK), A549; settings: for siRNA % fluorescence reduction vs siMOCK: A549, amphiphile 5 μM, hydrophobic tail; for percentage of GFP-silencing relative to siMOCK: A549 cells
Method: as §1
Cells expressing EGFP were seeded in a 96 well plate the day before the experiment at a concentration of 50,000 cell/mL (100 μL/w) in DMEM+10% FBS+1% Gln-Abt. For robotic library screening, the delivery of an EGFP-targeting siRNA (EGFP: enhanced green fluorescent protein, Ambion® Silencer® GFP Positive Control siRNA (siGFP) (AM4626)) in six different cell lines expressing EGFP was performed. […] The mixture was shaken for 30 min at room temperature (rt) before the addition to the cells. The cell medium was aspirated, and cells were washed twice with PBS. Finally, 50 μL of the solution of siRNA/amphiphile complexes were added to the cells and incubated for 4 h. After transfection, the medium was replaced by 100 μL of fresh DMEM supplemented with 10% FBS. The fluorescence knockdown was quantified after 72 h in a plate reader, by comparison with cells transfected with a non-targeting siRNA control (siMOCK, Silencer™ Negative Control No. 1 siRNA (siMOCK) (AM4611)). EGFP knockdown was compared with Lipofectamine® RNAiMAX silencing efficiency (30-60% depending on cell line, defined with a numeric value in the below tables). All experiments were done in triplicate.
Tables 1-7: RLuc (pDNA) or EGFP (mRNA) expression levels were normalized to Lipofectamine reagents (value=1) and expressed as fold-times signal increase. In the case of siRNA, the siRNA treated cells fluorescence was compared with siMOCK control fluorescence, while Cas9-RNP mediated knockout was measured against the fluorescence of untreated cells. In both siRNA and Cas9-RNP, values are expressed as % fluorescence reduction. Amphiphile concentration was 5 μM in all cases. All experiments were performed in triplicate.
as §2, with “20-25” for “26-31”, “GFP-silencing,” for “gene editing,”, “by” for “by GFP”, “relative to a non-targeting siRNA (siMOCK) control,” for “(% of reduction),”, “siRNA” for “Cas9-RNP”

Substance | mean luminescent intensity (RLuc pDNA) ([1]; Dodecanal, 10 μM) [RLU] | mean luminescent intensity (RLuc pDNA) ([1]; Myristoleyl, 5 μM) [RLU] | mean luminescent intensity (RLuc pDNA) ([1]; Myristoleyl, 10 μM) [RLU] | mean luminescent intensity (RLuc pDNA) ([1]; Oleyl, 15 μM) [RLU] | mean luminescent intensity (RLuc pDNA) ([1]; Palmitoleyl, 5 μM) [RLU] | mean luminescent intensity (RLuc pDNA) ([1]; Palmitoleyl, 15 μM) [RLU] | mean luminescent intensity (RLuc pDNA) ([1]; Petroselinyl, 5 μM) [RLU] | mean luminescent intensity (RLuc pDNA) ([1]; Petroselinyl, 10 μM) [RLU] | mean luminescent intensity (RLuc pDNA) ([1]; Petroselinyl, 15 μM) [RLU] | percentage of gene editing, GFP fluorescence intensity decrease (% of reduction) ([2]; Myristoleyl, 10 μM) [%] | percentage of gene editing, GFP fluorescence intensity decrease (% of reduction) ([2]; Oleyl, 5 μM) [%] | percentage of gene editing, GFP fluorescence intensity decrease (% of reduction) ([2]; Petroselinyl, 15 μM) [%] | percentage of GFP-silencing relative to siMOCK ([3]; Dodecanal, 5 μM) [%] | percentage of GFP-silencing relative to siMOCK ([3]; Dodecanal, 10 μM) [%] | percentage of GFP-silencing relative to siMOCK ([3]; Myristoleyl, 5 μM) [%] | percentage of GFP-silencing relative to siMOCK ([3]; Myristoleyl, 10 μM) [%] | percentage of GFP-silencing relative to siMOCK ([3]; Myristoleyl, 15 μM) [%] | percentage of GFP-silencing relative to siMOCK ([3]; Oleyl, 10 μM) [%] | percentage of GFP-silencing relative to siMOCK ([3]; Oleyl, 15 μM) [%] | mean luminescent intensity (RLuc pDNA) ([1]; Oleyl, 10 μM) [RLU] | other results
Ac-RRLK*RLK*RRLK*RL-NH2 [Peptide 13.3] | 4741 | 51434 | 32315 | 1949 | 142094 | 17328 | 14318 | 99695 | 36052 | 32 | 20 | −11 | 59 | 54 | 57 | 25 | 28 | 14 | 4 |  | mean luminescent intensity (RLuc pDNA) ([1]; Dodecanal, 5 μM): 60338 RLU; mean luminescent intensity (RLuc pDNA) ([1]; Myristoleyl, 15 μM): 3431 RLU; percentage of gene editing, GFP fluorescence intensity decrease (% of reduction) ([2]; Dodecanal, 10 μM): 13%; percentage of gene editing, GFP fluorescence intensity decrease (% of reduction) ([2]; Dodecanal, 15 μM): 18%; percentage of gene editing, GFP fluorescence intensity decrease (% of reduction) ([2]; Myristoleyl, 15 μM): 38%; siRNA % fluorescence reduction vs siMOCK ([3]; dodecanal hydrophobic tail): 58%; siRNA % fluorescence reduction vs siMOCK ([3]; myristoleyl hydrophobic tail): 57%; siRNA % fluorescence reduction vs siMOCK ([3]; palmitoleyl hydrophobic tail): 60%; percentage of GFP-silencing relative to siMOCK ([3]; Dodecanal, 15 μM): 46%; percentage of GFP-silencing relative to siMOCK ([3]; Palmitoleyl, 5 μM): 60%; percentage of GFP-silencing relative to siMOCK ([3]; Palmitoleyl, 10 μM): 37%; percentage of GFP-silencing relative to siMOCK ([3]; Palmitoleyl, 15 μM): 29%; percentage of GFP-silencing relative to siMOCK ([3]; Petroselinyl, 5 μM): 31%; percentage of GFP-silencing relative to siMOCK ([3]; Petroselinyl, 10 μM): 53%; percentage of GFP-silencing relative to siMOCK ([3]; Petroselinyl, 15 μM): 59%
Ac-RRLK*RLLRRLK*RL-NH2 (Ac-RRLK(NHNH2)RLLRRLK(NHNH2)RL-NH2; not fully specified; printed as Ac-RRLK*RLLRRLK*RL-NH2; also: K*4,K*11: native or modified lysine (ε-amide to a linker)) [Peptide 13.2] |  |  |  | 1593 |  |  |  |  |  |  | 13 |  |  |  |  |  |  | −2 | −21 | 2338 | mean luminescent intensity (RLuc pDNA) ([1]; Oleyl, 5 μM): 15723 RLU; percentage of gene editing, GFP fluorescence intensity decrease (% of reduction) ([2]; Oleyl, 10 μM): −7%; percentage of GFP-silencing relative to siMOCK ([3]; Oleyl, 5 μM): 19%
Ac-RRLK*RLLRRLK*RLK*RRL-NH2 (Ac-RRLK(NHNH2)RLLRRLK(NHNH2)RLK(NHNH2)RRL-NH2; not fully specified; printed as Ac-RRLK*RLLRRLK*RLK*RRL-NH2; also: K*4,K*11,K*14: native or modified lysine (ε-amide to a linker)) [Peptide 17.3] | 1102 | 7561 | −331 | 1957 | 14037 | 892 | 46486 | 11022 | 1651 | 44 |  | 27 | 25 | 4 | 24 | 8 | 6 |  |  | 1799 | mean luminescent intensity (RLuc pDNA) ([1]; Palmitoleyl, 10 μM): 5954 RLU; percentage of gene editing, GFP fluorescence intensity decrease (% of reduction) ([2]; Oleyl, 10 μM): 45%; percentage of gene editing, GFP fluorescence intensity decrease (% of reduction) ([2]; Oleyl, 15 μM): −9%; percentage of gene editing, GFP fluorescence intensity decrease (% of reduction) ([2]; Palmitoleyl, 5 μM): 12%; percentage of gene editing, GFP fluorescence intensity decrease (% of reduction) ([2]; Palmitoleyl, 10 μM): 60%; percentage of gene editing, GFP fluorescence intensity decrease (% of reduction) ([2]; Palmitoleyl, 15 μM): 31%; percentage of gene editing, GFP fluorescence intensity decrease (% of reduction) ([2]; Petroselinyl, 10 μM): 26%
